Several values for one entry are separate records, joined by “and”; a condition that tells them apart may be missing. Identical values can stand only once. Like-named read-outs stand apart in the source and are kept apart here.
What was measured:
[1] = parameters: method as in Gao et al. [11]; settings: plasma; 1.2 g ATB (equal to 4.8 mg Matr); ref Gao et al. [11]; cited from earlier work
[2] = Sample stability of ATB components (bench, freeze-thaw, short-term, long-term); assay type: physicochemical; settings: in % (unit assumed)
Experimental: samples for calibration were prepared. The study and QC samples were prepared on the same day as the UPLC-MS/MS analysis was done.
Calibration curves were prepared the same way as described in section S1.2.2. The linearity of each calibration curve was determined by plotting the peak area ratio of Matr, Maac, Dict, and Frax to I.S. in plasma. […] The lower limit of […] was defined based on a signal-to-noise ratio of 10:1.
S1.2.4 Extraction recovery and matrix effect
The extraction recoveries of Matr, Maac, Dict, and Frax were determined by comparing the relative peak areas obtained from blank plasma spiked with analytes and those obtained from water spiked with the same amounts of analytes. Matrix effect was determined by comparing the peak areas of blank plasma extracts spikes with analytes and I.S. with those of the standard solutions dried and reconstituted with mobile phase. The quality control samples were prepared in plasma.
Bench work (25°C for 4 hours), short-term (-20°C for 7 days), long-term (-80°C for 4 months) and three freeze-thaw cycle stabilities were determined.

[3] = Single-dose oral pharmacokinetic study of ATB tablets in healthy human subjects (plasma and saliva, non-compartmental analysis); assay type: in vivo; settings: for AUC(0-t) / Cmax / Tmax / half-life / Kp: both sexes, human, po; for Kp: saliva and plasma; for inter-subject variability of systemic exposure (AUC): n = 8
Experimental: In addition, in vivo correlation between plasma and saliva concentrations was determined as the secondary outcome.
The ratio of drug concentration in plasma and saliva were calculated using Equations (1) and (2). (1) RCmax=Cmax saliva/Cmax plasma (2) RAUC=AUC0–24 saliva/AUC0–24 plasma […]
S2.1. Human Pharmacokinetic Study Design
The study was conducted in two phases. Two self-volunteered subjects participated in the study […]
Participants refrained from consumption of […]
dosing blood and saliva samples were collected. Each participant received single-dose oral […]
saliva sample kit for salivary collection. Plasma samples were then collected by centrifugation of […]
hour post-administration. […]
administration. […] Throughout the […]
collected and saline lock was removed. Participants returned the next day morning for 24-hour […]
Participants fasted 8-12 hours before each

[4] = Sample stability of ATB components (bench, freeze-thaw, short-term, long-term); assay type: physicochemical; settings: in % (unit assumed); remark: listed apart in the source
[5] = Stability of ATB tablets (ICH storage conditions)
Experimental: Two independent batches of ATB tablets were tested according to International Conference on Harmonization (ICH) Guideline for long-term (12 months at 25 ± 2 °C/60 ± 5% RH), intermediate (6 months at 30 ± 2 °C/65 ± 5% RH), and accelerated (40 ± 2 °C/75 ± 5% RH) stability [12].

[6] = parameters: method as in Bui et al. [9]; settings: ref Bui et al. [9]; cited from earlier work
[7] = parameters: method as in ref [3] of Supplement S4 (Bui et al.); settings: mice; ref [3] of Supplement S4 (Bui et al.); cited from earlier work
[8] = parameters: method as in Gao et al. [11]; settings: blood/plasma ratio; ref Gao et al. [11]; cited from earlier work
[9] = parameters: method as in PMID 33896325; settings: cited from earlier work
OCT1, OCT2 and OCT3 = system: OCT1, OCT2 and OCT3; parameters: method as in PMID 33896325; settings: read-out: Km of uptake by OCT1, OCT2 and OCT3; cited from earlier work
[10] = average of 8 healthy volunteers, single oral dose 2400 mg ATB
[11] = average of 8 healthy volunteers, single oral dose 2400 mg ATB, plasma
[12] = average of 8 healthy volunteers, single oral dose 2400 mg ATB, saliva
[13] = individual subjects, single oral dose 2400 mg ATB (8 tablets)
[14] = individual subjects, single oral dose 2400 mg ATB (8 tablets), plasma
[15] = individual subjects, single oral dose 2400 mg ATB (8 tablets), saliva

Q: What does the source list for `O=C1CCC[C@@H]2[C@H]3CCCN4CCC[C@@H](CN12)[C@@H]34` [matrine]?
A: AUC0-T Human Subjects Observed [1]: 412.2 µg·h/L; Cmax Human Subjects Observed [1]: 29.7 ng/mL; Tmax Human Subjects Observed [1]: 3.0 h; Stability, 3 cycles freeze-thaw ([2]; HQC concentration level): 99.1 ± 6.7; Stability, Bench work (4 hrs, 25 oC) ([2]; HQC concentration level): 103.1 ± 2.6; Stability, Short-term (7 days, -20 oC) ([2]; HQC concentration level): 88.3 ± 6.6; Stability, 3 cycles freeze-thaw ([2]; LOQ concentration level): 109.6 ± 1.3; Stability, 3 cycles freeze-thaw ([2]; MQC concentration level): 93.7 ± 3.4; Stability, Bench work (4 hrs, 25 oC) ([2]; MQC concentration level): 85.8 ± 8.9; AUC0–24 Saliva/Plasma Ratio [3, 10]: 4.8 ± 1.7; Cmax Saliva/Plasma Ratio [3, 10]: 6.4 ± 1.8; AUC0–24 Plasma [3, 11]: 278.34 ± 84.90 ng·h/mL; Half-Life Plasma [3, 11]: 10.38 ± 3.83 h; Tmax Plasma [3, 11]: 2.16 ± 0.69 h; AUC0–24 Saliva [3, 12]: 1302.37 ± 459.28 ng·h/mL; Half-Life Saliva [3, 12]: 12.37 ± 7.01 h; Tmax Saliva [3, 12]: 1.56 ± 0.82 h; AUC(0-t) ([3]; plasma, 2.6 mg, plasma, 2.6 mg Matr p.o. (8 ATB tablets), read-out: AUC0-T Healthy Volunteers Observed): 278 ng·h/mL; Cmax ([3]; plasma, 2.6 mg, plasma, 2.6 mg Matr p.o. (8 ATB tablets), read-out: Cmax Healthy Volunteers Observed): 25.2 ng/mL; Tmax ([3]; plasma, 2.6 mg, plasma, 2.6 mg Matr p.o. (8 ATB tablets), read-out: Tmax Healthy Volunteers Observed): 2.2 h; AUC(0-t) ([3]; plasma, 2400 mg, average of 8 healthy volunteers, single oral dose 2400 mg ATB, plasma, read-out: AUC0–24 Plasma): 266 ± 80 ng·h/mL; Cmax ([3]; plasma, 2400 mg, average of 8 healthy volunteers, single oral dose 2400 mg ATB, plasma, read-out: Cmax Plasma): 25.2 ± 3.82 ng/mL; half-life ([3]; plasma, 2400 mg, average of 8 healthy volunteers, single oral dose 2400 mg ATB, plasma, read-out: Half-Life Plasma (converted)): 600 ± 168 min; Tmax ([3]; plasma, 2400 mg, average of 8 healthy volunteers, single oral dose 2400 mg ATB, plasma, read-out: Tmax Plasma): 2 ± 0.6 h; Cmax ([3]; plasma, 2400 mg, individual subjects, single oral dose 2400 mg ATB (8 tablets), plasma, read-out: Cmax Plasma): 22.8 ng/mL; Kp ([3]; 2400 mg, average of 8 healthy volunteers, single oral dose 2400 mg ATB, read-out: AUC0–24 Saliva/Plasma Ratio): 4.8 ± 2; Kp ([3]; 2400 mg, average of 8 healthy volunteers, single oral dose 2400 mg ATB, read-out: Cmax Saliva/Plasma Ratio): 6.4 ± 1.4; AUC(0-t) ([3]; saliva, 2400 mg, average of 8 healthy volunteers, single oral dose 2400 mg ATB, saliva, read-out: AUC0–24 Saliva): 1210 ± 399 ng·h/mL; Cmax ([3]; saliva, 2400 mg, average of 8 healthy volunteers, single oral dose 2400 mg ATB, saliva, read-out: Cmax Saliva): 153 ± 53.5 ng/mL; half-life ([3]; saliva, 2400 mg, average of 8 healthy volunteers, single oral dose 2400 mg ATB, saliva, read-out: Half-Life Saliva (converted)): 804 ± 414 min; Tmax ([3]; saliva, 2400 mg, average of 8 healthy volunteers, single oral dose 2400 mg ATB, saliva, read-out: Tmax Saliva): 1.5 ± 0.9 h; AUC0–24 Saliva/Plasma Ratio [3, 13]: 8.57 and 4.71 and 2.86 and 4.68 and 4.61 and 4.14 and 4.81 and 3.93; Cmax Saliva/Plasma Ratio [3, 13]: 6.73 and 5.60 and 3.26 and 5.12 and 7.05 and 7.41 and 7.27 and 9.08; AUC0–24 Plasma [3, 14]: 173.50 ng·h/mL and 240.73 ng·h/mL and 295.05 ng·h/mL and 228.16 ng·h/mL and 408.92 ng·h/mL and 247.39 ng·h/mL and 428.83 ng·h/mL and 231.84 ng·h/mL; Cmax Plasma [3, 14]: 22.70 ng/mL and 28.06 ng/mL and 23.60 ng/mL and 28.56 ng/mL and 21.28 ng/mL and 31.91 ng/mL and 22.48 ng/mL; Half-Life Plasma [3, 14]: 6.99 h and 8.43 h and 15.12 h and 17.06 h and 10.66 h and 9.84 h and 6.29 h and 8.65 h; Tmax Plasma [3, 14]: 3 h and 3.3 h and 1 h; AUC0–24 Saliva [3, 15]: 1487.35 ng·h/mL and 1133.48 ng·h/mL and 845.11 ng·h/mL and 1067.94 ng·h/mL and 1884.98 ng·h/mL and 1024.67 ng·h/mL and 2064.14 ng·h/mL and 911.28 ng·h/mL; Cmax Saliva [3, 15]: 153.18 ng/mL and 127.11 ng/mL and 91.61 ng/mL and 120.81 ng/mL and 201.34 ng/mL and 157.71 ng/mL and 231.60 ng/mL and 204.07 ng/mL; Half-Life Saliva [3, 15]: 7.38 h and 9.83 h and 7.59 h and 26.39 h and 18.98 h and 11.13 h and 5.42 h and 12.23 h; Tmax Saliva [3, 15]: 0.5 h and 1 h and 3 h; inter-subject variability of systemic exposure (AUC) ([3]; plasma): 30.1%; inter-subject variability of systemic exposure (AUC) ([3]; saliva): 32.8%; Stability, Long-term (6 months, -80 oC) ([4]; HQC concentration level): 94.6 ± 6.7; Stability, Bench work (4 hrs, 25 oC) ([4]; LOQ concentration level): 110.5 ± 18.0; Stability, Long-term (6 months, -80 oC) ([4]; LOQ concentration level): 96.2 ± 0.6; Stability, Short-term (7 days, -20 oC) ([4]; LOQ concentration level): 86.6 ± 3.8; Stability, Long-term (6 months, -80 oC) ([4]; MQC concentration level): 105.8 ± 3.8; Stability, Short-term (7 days, -20 oC) ([4]; MQC concentration level): 85.7 ± 8.7; remaining percentage in ATB tablets, Long term 3 months ([5]; 25 ± 2 °C/60 ± 5% RH): 89.1 ± 2.7%; remaining percentage in ATB tablets, Long term 6 months ([5]; 25 ± 2 °C/60 ± 5% RH): 93.9 ± 2.1%; remaining percentage in ATB tablets, Long term 12 months ([5]; 25 ± 2 °C/60 ± 5% RH): 89.6 ± 0.8%; remaining percentage in ATB tablets, Intermediate 3 months ([5]; 30 ± 2 °C/65 ± 5% RH): 89.6 ± 0.5%; remaining percentage in ATB tablets, Intermediate 6 months ([5]; 30 ± 2 °C/65 ± 5% RH): 92.1 ± 3.6%; remaining percentage in ATB tablets, Accelerated term 3 months ([5]; 40 ± 2 °C/75 ± 5% RH): 87.0 ± 5.0%; remaining percentage in ATB tablets, Accelerated term 6 months ([5]; 40 ± 2 °C/75 ± 5% RH): 99.4 ± 3.2%; First pass effect [6]: 26.00%; bioavailability [7]: 2.4 ± 1.2%; Rbp [8]: 0.97

Q: With `CN(C)C(=N)N=C(N)N` [metformin] as the compound, how does the saliva/plasma concentration ratio [9] read?
A: The saliva/plasma concentration ratio was 0.29–0.39.

Q: What about the Km (OCT1, OCT2 and OCT3) of the same compound?
A: Its Km is 0.285 to 3.17 mM.
